Assay results as given in the NIST ThermoML archive (doi:10.1021/je5010643).
Numbers after ± are expanded uncertainties.

Experiments:
[1] = 101.32 kPa, Liquid; for speed of sound: Frequency=3 MHz, Linear variable-path acoustic interferometer
[2] = refractive index (Na D-line) (dimensionless); details: 101.32 kPa, Liquid, Standard Abbe refractometry
[3] = xn = mol fraction of the nth substance listed; details: 101.32 kPa, Liquid, x1 = 1; for speed of sound: Frequency=3 MHz, Linear variable-path acoustic interferometer
[4] = refractive index (Na D-line) (dimensionless); xn = mol fraction of the nth substance listed; details: 101.32 kPa, Liquid, Standard Abbe refractometry, x1 = 1

CC(C)C(=O)O [2-methylpropanoic acid]
Details	mass density, [1] [kg/m3]	refractive index, [2]	speed of sound, [1] [m/s]
295.15 K	945.28 ± 1	1.3919 ± 0.0004	1100.2 ± 1.6
298.15 K	942.22 ± 1	1.3907 ± 0.0004	1086 ± 1.6
301.15 K	939.16 ± 1.1	1.3895 ± 0.0004	1072.1 ± 1.6
304.15 K	936.1 ± 1.1	1.3883 ± 0.0004	1058.2 ± 1.6
307.15 K	933.04 ± 1.1	1.3872 ± 0.0004	1043.4 ± 1.6
310.15 K	929.98 ± 1.1	1.386 ± 0.0004	1030.8 ± 1.6
313.15 K	926.92 ± 1.1	1.3849 ± 0.0004	1015.2 ± 1.6

C1COCCO1 [1,4-dioxane]
Details	mass density, [1] [kg/m3]	refractive index, [2]	speed of sound, [1] [m/s]
295.15 K	1030.86 ± 0.9	1.4211 ± 0.0004	1357.7 ± 1.8
298.15 K	1027.59 ± 0.88	1.4197 ± 0.0004	1344.8 ± 1.8
301.15 K	1024.32 ± 0.86	1.4183 ± 0.0004	1331.9 ± 1.7
304.15 K	1021.05 ± 0.83	1.4168 ± 0.0004	1319 ± 1.7
307.15 K	1017.78 ± 0.81	1.4154 ± 0.0004	1306.2 ± 1.7
310.15 K	1014.51 ± 0.79	1.4138 ± 0.0004	1293.3 ± 1.7
313.15 K	1011.24 ± 0.77	1.4124 ± 0.0004	1280.4 ± 1.7

C1COCCO1 [1,4-dioxane] + CC(C)C(=O)O
Details	mass density, [3] [kg/m3]	refractive index, [4]	speed of sound, [3] [m/s]
295.15 K	1030.86 ± 0.9	1.4211 ± 0.0004	1357.7 ± 1.8
298.15 K	1027.59 ± 0.88	1.4197 ± 0.0004	1344.8 ± 1.8
301.15 K	1024.32 ± 0.86	1.4183 ± 0.0004	1331.9 ± 1.7
304.15 K	1021.05 ± 0.83	1.4168 ± 0.0004	1319 ± 1.7
307.15 K	1017.78 ± 0.81	1.4154 ± 0.0004	1306.2 ± 1.7
310.15 K	1014.51 ± 0.79	1.4138 ± 0.0004	1293.3 ± 1.7
313.15 K	1011.24 ± 0.77	1.4124 ± 0.0004	1280.4 ± 1.7
